The record followed here is patent US11510931B2, “Compositions and methods for treating ophthalmic conditions” (MEDICON PHARMACEUTICALS, INC., priority 2016, dated 2022).

The test system of one experiment is MMP-9. As to the kind of experiment: MMP-9 levels in lacrimal gland and aqueous humor of rabbits with DED (ELISA). In kind it is in vivo, rabbit. The method, then:
(§1) In an in vitro assay with purified MMP-1 (collagenase I) as […] it was shown that PS inhibited collagenase activity with an IC50 of <100 nM. In cultured human conjunctiva cells, PS suppressed MMP-1 by 75%-86%. In the lacrimal glands of rabbits with DED treated with PS eye drops, PS suppressed MMP-9 levels by 27% compared to vehicle treated rabbits (2.20±0.24 vs. 1.66±0.20 ng/mg protein; p<0.05; mean±SEM).

The test system of the next experiment is VEGF-A. As to the kind of experiment: Secreted VEGF in culture medium of human ovarian cancer cells (ELISA). In kind it is cell-based. Particulars: PS 1.0×IC50, 24 h. As to the method: First, the effect of PS on VEGF production was evaluated by cultured human cancer ovarian cells, known to secrete VEGF to recruit vascular endothelial cells for angiogenesis. Therefore, VEGF is one of the most significant and direct targets in an anti-angiogenesis strategy. The experiments discovered that VEGF levels are reduced in ovarian cancer cells by PS. Secreted VEGF was assayed in the culture medium by ELISA.
For orientation: An ELISA detects its analyte on a solid surface through an enzyme-linked reagent.

Experiment [1] deals with NF-κB. In words: NF-κB activation in the ILG of rabbits with DED. The experiment is classed as in vivo, rabbit. Conditions: 1 week of treatment, vs vehicle. The method, then:
(§2) Human conjunctival cells were treated with various concentrations of PS. Five hours later, TNF-α was added to the culture medium to a final concentration of 10 ng/ml and the status of NF-κB activation was determined by EMSA 1 h later. […] Similarly, after 1 week of treatment, PS suppressed NF-κB activation in the ILG of rabbits with DED compared to those treated with vehicle.

For experiment [2], the system named is NF-κB. As to the kind of experiment: NF-κB activation by EMSA in TNF-α-stimulated human conjunctival cells. In kind it is cell-based. Particulars: PS 5 h then TNF-α 10 ng/ml 1 h, FIG. 6A.
From the text: The Mechanism of Action of PS in Dry Eye. Tissue culture, animal and human studies have established inflammation as the core mechanism of DED^8. To determine the mechanism of action of PS in DED the response to PS of several factors known to play an important role in the inflammation associated with DED was explored. They include NF-κB; the cytokines TGF-β, IL-1 β, IL-6 and IL-8; the collagenases MMP-1 and MMP-9; and PGE2. In these studies we used human conjunctival epithelial cells, the Wong-Kilbourne derivative of Chang conjunctival cells (clone 1 to 5c-41 American Type Culture Collection (Manassas, Va.) certified cell line, 20.2).
as §2

A further experiment relates to TGF-β. In words: TGF-β in culture medium of human conjunctival cells (ELISA). The experiment is classed as cell-based. The method, then: (§3) Culture media were harvested 24 h later and the levels of TGF-β, IL-6 and IL-8 were determined by ELISA. Of note, the levels of IL-1β were below the limit of detection.
The test system of a further experiment is PGE2. In words: PGE2 levels in tears and cornea of rabbits by ELISA. In kind it is in vivo, rabbit. The method, then: The effects of PS, ketorolac and dicofenac (the latter two ophthalmic NSAIDs known to induce corneal melt) on the tear levels of PGE2 in rabbits with concanavalin A-induced dry eye were compared. Three eye drops of PS 1.5% or of commercially available ketorolac 0.5% were given at 0 time, and 1 h later to rabbits with concanavalin A-induced DED. Tears were obtained at 2 h and the levels of PGE2 were determined by ELISA. PGE2 in tears of naïve rabbits (not exposed to concanavalin A nor treated) was also measured. The PGE2 levels (mean±SEM) were: Naïve, 110.4±12.6 ng/ml; PS-treated, 115.4±15.8 ng/ml; Ketorolac-treated, 77.7±8.7 ng/ml. The difference in PS vs. ketorolac was significant, p<0.02; as was the difference in ketorolac vs naïve, p<0.03. Regarding this parameter, PS differs radically form ketorolac, which induces corneal melt.
Levels of PGE2 in the corneas of three groups of rabbits were determined by ELISA. Rabbits were treated with PS 1.6% or ketorolac 0.5% eye drops topically applied to their eyes or were not treated (naïve group). Results in pg/mg protein (mean±SEM). Naïve=787.3±96.3; PS=880.6±110.3; Ketrolorac=247.2±187.4 (p<0.01 vs PS).
Rabbits with DED induced by concanavalin A as above were treated for 6 days with vehicle, or PS 2.3% or ketorolac 0.5% or diclofenac 0.1%. Compared to the vehicle group, on day 6 the PGE2 levels in the cornea were 106% of the vehicle value in the PS group (not a statistically significant difference), 1.3% in the ketorolac group (p<0.0001 vs. vehicle, and 2.3% in the diclofenac group (p<0.0001 vs. vehicle).
It was determined that the levels of PGE2 in rabbit tears in three groups of rabbits, naïve and those with Con A-induced DED that were treated for 1 week either with PS or vehicle.
In an acute experiment, administered once topically to the eyes of four groups of rabbits with Con A-induced DED was one of the following: vehicle, PS, ketorolac or diclofenac; the latter two are NSAIDs used for the treatment of ocular inflammation and pain. It was determined that the levels of PGE2 in the cornea of these rabbits obtained 1 h later as well as in the corneas of naïve rabbits.

A further experiment relates to IL-8. In words: IL-8 in culture medium of human conjunctival cells (ELISA). The experiment is classed as cell-based. The method, then:
as §3

A further experiment concerns the target T1, MMP-1 (collagenase I) (Homo sapiens, UniProt P03956).
T1 sequence (P03956 100-469): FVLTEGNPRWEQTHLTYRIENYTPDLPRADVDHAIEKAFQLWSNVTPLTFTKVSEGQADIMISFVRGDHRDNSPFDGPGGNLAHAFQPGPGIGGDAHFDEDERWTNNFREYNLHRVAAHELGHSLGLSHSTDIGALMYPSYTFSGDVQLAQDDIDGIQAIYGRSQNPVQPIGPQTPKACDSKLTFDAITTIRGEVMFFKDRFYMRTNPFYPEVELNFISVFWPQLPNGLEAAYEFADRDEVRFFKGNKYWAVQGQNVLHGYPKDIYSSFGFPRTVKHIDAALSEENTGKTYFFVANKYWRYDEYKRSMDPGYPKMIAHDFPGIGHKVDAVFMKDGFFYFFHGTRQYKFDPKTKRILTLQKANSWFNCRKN
In words: In vitro collagenase activity assay with purified MMP-1. The experiment is classed as biochemical. Particulars: purified MMP-1 (collagenase I). As to the method:
as §1

[3] abbreviates: TNF-α-stimulated, PS 1×IC50, media at 24 h.

One may read the IC50 as the point on the concentration scale where inhibition reaches its midpoint. Read a high IC50 as weaker potency in that assay. Regarding `CCOP(=O)(OCC)OCCCCOC(=O)CC1=C(C)/C(=C/c2ccc([S+](C)[O-])cc2)c2ccc(F)cc21` (centres unmarked) [PS, phosphosulindac], the “MMP-9 levels suppression compared to vehicle” value with MMP-9 (lacrimal glands of rabbits with DED, PS eye drops) is 27%. The MMP-9 levels in the experiment with MMP-9 (lacrimal glands of rabbits with DED, PS eye drops, mean±SEM) is on record as 1.66±0.20 ng/mg protein. Further, the “MMP-9 levels in the ILG and the aqueous humor” value with MMP-9 (rabbits with DED treated with PS for 1 week) is on record as “back to normal”. The “VEGF-A, % inhibition” value in the experiment with VEGF-A (A2780) was 64%; with VEGF-A (A2780ADR), 77%; in the experiment with VEGF-A (A2780cis), 65%; with VEGF-A (OVCAR-3), 100%; in the experiment with VEGF-A (SKOV-3) it was 96%. Moreover, in the experiment with NF-κB [1], the “NF-κB activation in the ILG” value is listed as “suppressed”. Further, in the experiment on NF-κB [2], the “activation of NF-κB (EMSA)” value is “significantly suppressed”. Further, the TGF-β reduction in the experiment with TGF-β (setting [3]) amounted to 19%; in the experiment with TGF-β (unstimulated levels, PS 1×IC50, not statistically significant) it was 4.7%. The “PGE2 levels in tears” value was “slightly lower than (but not significantly different from) those of naïve rabbits” in the experiment with PGE2 (Con A DED rabbits treated for 1 week, FIG. 9A); 115.4 ± 15.8 ng/mL with PGE2 (Con A DED rabbits, three eye drops at 0 and 1 h, tears at 2 h, PS 1.5%, ketorolac 0.5%, mean±SEM). Moreover, the “PGE2 levels in the cornea” value with PGE2 (Con A DED rabbits, administered once topically, 1 h later, FIG. 9B) was “no different than those of vehicle-treated and naïve rabbits”. Also, in the experiment on PGE2 (Con A DED rabbits, day 6, PS 2.3%, ketorolac 0.5%, diclofenac 0.1%), the “PGE2 levels in the cornea, % of the vehicle value” was 106%. In addition, in the experiment on PGE2 (rabbits, PS 1.6% or ketorolac 0.5% eye drops, mean±SEM), the “PGE2 levels in the corneas” value is given as 880.6±110.3 pg/mg protein. Besides, the IL-8 reduction in the experiment on IL-8 (setting [3]) was found to be 92%; in the experiment with IL-8 (unstimulated levels, PS 1×IC50), 62%. This molecule also displayed an IC50 against MMP-1 (collagenase I) of less than 100 nM.
